Test results published in patent publication US12496460B2, “System and method for quantitative dosimetry of photodynamic therapy in skin” (Trustees of Dartmouth College, priority 2020, dated 2025).

Legend:
[1] = test system: PpIX accumulation in athymic nude mice; details: mouse, in vivo
Description: Example 1—Preclinical In-vivo Murine Measurements: The nude mouse model was used to examine the system's 100 ability to capture in-vivo production of PpIX. The measurements were performed on five athymic nude mice fed a low-chlorophyll diet to minimize tissue autofluorescence. For imaging, the mice were placed under anesthesia and onto a heated pad to regulate their body temperature; the temperature was monitored using an IR camera (TG165, FLIR Systems Inc.) and kept in the 32° C.-36° C. range. AMELUZ® (Biofontera Inc., Boston, MA), a 10% aminolevulinic acid hydrochloride gel, was topically applied to the backs of the mice as to contain an ALA-applied area and a control area within the field-of-view of the system 100. The mice were kept in a low-light environment to prevent photobleaching of the accumulated PpIX. Images of the mice were taken at 10-minute intervals for the first hour with subsequent images at two and three hours of incubation. The mice were kept under anesthesia during the first hour, placed back in the cage, and briefly placed back under anesthesia for imaging at two and three hours of incubation. The imaging parameters used for these measurements were iOS-generated images with ISO 400 and exposure set to 1/10th sec. The images were processed in ImageJ, where the red pixels were isolated for region-of-interest (ROI) pixel intensity calculation.
In this murine model, it was possible to quantitatively observe the PpIX accumulation in the ALA-applied area as early as 10 minutes with a clear visual accumulation in the 20-30 minute timeframe. In contrast, the control region was relatively flat for the first hour with a moderate increase in fluorescence observed at the two hour and three hour measurements as the mice begin systematic accumulation of the PpIX.

[2] = test system: PpIX fluorescence at AK treatment sites; details: human, in vivo
Description: Example 2—Human Skin Test Measurement: In this human testing, the system's 100 performance was evaluated on three patients undergoing their standard clinical PDT treatment at the Dartmouth-Hitchcock Dermatology Department for treatment of AKs using Levulan® (Sun Pharma Industries Ltd., Mumbai, India), a 20% ALA solution [see FIG. 2A]. […] The standard procedure involves treatment of a site (e.g. face, scalp, arms, or legs) which is cleaned using ethanol and followed by non-occluded topical application of the ALA; the patient is then transferred to a low-light rest area for a 60-minute incubation period. […] Fluorescence images from a treatment site are gathered before the ALA is applied, at the 60-minute incubation, and post-PDT treatment [see FIG. 2B]. Discomfort levels experienced by the imaged patients were recorded during light irradiation via verbal rating of the pain. The goal of performing dosimeter imaging using the system 100 during treatment is to correlate the measured PpIX accumulation and PDT-induced photobleaching to patient outcomes and generate thresholds that can be used for individualized treatment guidance [see FIG. 2C]. […] Images were pre-processed using Adobe DNG Converter software and analyzed using MATLAB and ImageJ to extract the RAW pixel values. […]

## NCC(=O)CCC(=O)O [ALA, aminolevulinic acid]
[1]; athymic nude
  time at which PpIX accumulation is quantitatively observed in the ALA-applied area: 10 min
  timeframe of clear visual PpIX accumulation: 20 to 30 min
[1]
  course of PpIX fluorescence over the three hours of incubation: monotonic increase
[2]
  average pixel value (PpIX fluorescence) at 60 min incubation: 21.1±6.1
